Results as given in patent US5726200A, “Pro-drugs for CCK antagonists” (Warner-Lambert Company, priority 1996, dated 1998).

Target: T1, CCK-B receptor (Mus musculus, UniProt P56481)
T1 construct: from tissue; host or cells: cerebral cortex membranes of male CFLP mice
T1 sequence (P56481 1-453): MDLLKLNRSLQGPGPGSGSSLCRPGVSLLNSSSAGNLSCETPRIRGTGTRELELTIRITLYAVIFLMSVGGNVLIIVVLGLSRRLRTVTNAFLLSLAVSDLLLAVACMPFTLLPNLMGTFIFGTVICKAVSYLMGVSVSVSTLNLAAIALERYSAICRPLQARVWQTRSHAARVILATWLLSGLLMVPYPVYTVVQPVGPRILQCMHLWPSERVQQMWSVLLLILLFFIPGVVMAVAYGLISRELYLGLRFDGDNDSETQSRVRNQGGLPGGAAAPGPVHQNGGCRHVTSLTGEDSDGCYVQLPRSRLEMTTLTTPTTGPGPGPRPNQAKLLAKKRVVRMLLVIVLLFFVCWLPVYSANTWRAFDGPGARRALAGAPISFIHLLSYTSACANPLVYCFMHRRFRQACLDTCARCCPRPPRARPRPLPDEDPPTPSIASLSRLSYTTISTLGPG
Assay: Displacement of tritiated-pentagastrin binding to mouse cerebral cortical membranes
Parameters: species or system mouse (male CFLP mice)
Conditions: displacement of 2 nM tritiated-pentagastrin, n = number of assays, read-out: Receptor Affinity CCI-B (Ki)
Method: The biological activity of compounds of the present invention was evaluated employing an initial screening test which rapidly and accurately measured the binding of the tested compound to known CCK receptor sites. […] (See Hays et al, Neuropeptides 1:53-62, 1980; and Satuer et al, Science 208:1155-1156, 1980).
In this screening test, the cerebral cortices taken from male CFLP mice weighing between 30-40 g were dissected on ice, weighed, and homogenized in 10 volumes of 50 mM Tris-HCl buffer (pH 7.4 at 0°-4° C.). The resulting suspension was centrifuged, the supernate was discarded, and the pellet was washed by resuspension in Tris-HCl buffer followed by recentrifugation. The final pellet was resuspended in 20 volumes of […] Hepes buffer (pH 7.2 at 23° C.) containing 130 mM NaCl, […] KCl, […] MgCl2, […] EDTA, 5 mg/mL bovine albumin, and bacitracin (0.25 mg/mL).
In saturation studies, cerebral cortical membranes were incubated at 23° C. for 120 minutes in a final volume of 500 μL of Hepes incubation buffer (pH 7.2) together with 0.2-20 nM tritiated-pentagastrin (Amersham International, England).
In the displacement experiments, membranes were incubated with a single concentration (2 nM) of iigand, together with increasing concentrations (10^-11 to […]) of competitive test compound. In each case, the nonspecific binding was defined as that persisting in the presence of the unlabeled octapeptide CCK26-33 (10^-6 M).
Following incubation, radioactivity bound to membranes was separated from that free in solution by rapid filtration through Whatman GF/B filters and washed three times with 4 mL of ice cold Tris-HCl buffer. Filters from samples incubated with tritiated-pentagastrin were placed in polyethylene vials with 4 mL of scintillation cocktail, and the radioactivity was estimated by liquid scintillation spectrometry (efficiency 47-52%).
The specific binding to CCK receptor sites was defined as the total bound tritiated-pentagastrin minus the amount of tritiated-pentagastrin bound in the presence of 10^-6 octapeptide, CCK26-33.
Saturation curves for specific tritiated-pentagastrin binding to mouse cortical membranes were analyzed by the methods of Scatchard (Ann. New York Acad. Sci. 51:660-672, 1949, and Hill (J. Physiol. 40:IV-VIII, 1910, to provide estimates for the maximum number of binding sites (Bmax) and the equilibrium dissociation constant (Ka).
In displacement experiments, inhibition curves were analyzed by either logit-log plots or the iterative curve fitting computer program ALLFIT (DeLean, Munson and Redbard, 1978) to provide estimates of the IC50 and nH (apparent Hill coefficient) values). (IC50 values were defined as the concentration of test compound required to produce 50% inhibition of specific binding.)
The inhibition constant (Ki) of the test compound was then calculated according to the Cheng-Prusoff equation: [formula] where [L] is the concentration of radiolabel and Ka is the equilibrium dissociation constant.

Row | Ki [nM] | Structure (SMILES)
1 | 9.44 | C[C@](Cc1c[nH]c2ccccc12)(NC(=O)OC1C2CC3CC(C2)CC1C3)C(=O)N[C@H](CC(=O)NCCC(=O)O)Cc1ccccc1 (stereo partly drawn) [Compound 11a, β-Alanine, N-[3-[[3-(1H-indol-3-yl)-2-methyl-1-oxo-2-[[(tricyclo[3.3.1.1^3,7]dec-2-yloxy)carbonyl]amino]propyl]amino]-1-oxo-4-phenylbutyl]-, [R-(R*,S*)]]
2 | 17.9 | CCOC(=O)CNC(=O)C[C@H](Cc1ccccc1)NC(=O)[C@@](C)(Cc1c[nH]c2ccccc12)NC(=O)OC1C2CC3CC(C2)CC1C3 (stereo partly drawn) [Compound 10k, Glycine, N-[3-[[3-(1H-indol-3-yl)-2-methyl-1-oxo-2-[[(tricyclo[3.3.1.1^3,7]dec-2-yloxy)carbonyl]amino]propyl]amino]-1-oxo-4-phenylbutyl]-, ethyl ester, [R-(R*,S*)]-]
3 | 1520 | C[C@](Cc1c[nH]c2ccccc12)(NC(=O)OC1C2CC3CC(C2)CC1C3)C(=O)N[C@@H](Cc1ccccc1)C(=O)N[C@@H](CCC(=O)O)C(=O)O (stereo partly drawn) [Compound 6i, L-Glutamic acid, N-[N-[α-methyl-N-[(tricyclo[3.3.1.1^3,7]dec-2-yloxy)carbonyl]-D-tryptophyl]-L-phenylalanyl]]
4 | 66.4 | CCOC(=O)CCCNC(=O)C[C@H](Cc1ccccc1)NC(=O)[C@@](C)(Cc1c[nH]c2ccccc12)NC(=O)OC1C2CC3CC(C2)CC1C3 (stereo partly drawn) [Compound 10l]
5 | 110 | COC(=O)CC[C@H](NC(=O)[C@H](Cc1ccccc1)NC(=O)[C@@](C)(Cc1c[nH]c2ccccc12)NC(=O)OC1C2CC3CC(C2)CC1C3)C(=O)OC (stereo partly drawn) [Compound 5f]
6 | 27.9 ± 4.1 | C[C@](Cc1c[nH]c2ccccc12)(NC(=O)OC1C2CC3CC(C2)CC1C3)C(=O)N[C@@H](Cc1ccccc1)C(=O)NCCC(=O)O (stereo partly drawn) [Compound 6a, β-Alanine, N-[N-[α-methyl-N-[(tricyclo[3.3.1.1^3,7]-dec-2-yloxy)carbonyl]-D-tryptophyl]-L-phenylalanyl]]
7 | 7.41 ± 1.04 | C[C@](Cc1c[nH]c2ccccc12)(NC(=O)OC1C2CC3CC(C2)CC1C3)C(=O)N[C@@H](Cc1ccccc1)C(=O)NCC(=O)O (stereo partly drawn) [Compound 6j, Glycine, N-[2-methyl-N-[(tricyclo[3.3.1.1^3,7]dec-2-yloxy)carbonyl]-D-tryptophyl]-L-phenylalanyl-]
8 | 1170 | C[C@](Cc1c[nH]c2ccccc12)(NC(=O)OC1C2CC3CC(C2)CC1C3)C(=O)N[C@@H](Cc1ccccc1)C(=O)N[C@@H](CC(=O)O)C(=O)O (stereo partly drawn) [Compound 6h, L-Aspartic acid, N-[N-[α-methyl-N-[(tricyclo[3.3.1.1^3,7]dec-2-yloxy)carbonyl]-D-tryptophyl]-L-phenylalanyl]]
9 | 10.6 ± 0.12 | C[C@](Cc1c[nH]c2ccccc12)(NC(=O)OC1C2CC3CC(C2)CC1C3)C(=O)N[C@H](CC(=O)NCCCC(=O)O)Cc1ccccc1 (stereo partly drawn) [Compound 11l, Butanoic acid, 4-[[3-[[3-(1H-indol-3-yl)-2-methyl-1-oxo-2-[[(tricyclo[3.3.1.1^3,7]dec-2-yloxy)carbonyl]amino]propyl]amino]-1-oxo-4-phenylbutyl]amino]-, [R-(R*,S*)]]
10 | 21.2 ± 5.4 | COC(=O)CCNC(=O)C[C@H](Cc1ccccc1)NC(=O)[C@@](C)(Cc1c[nH]c2ccccc12)NC(=O)OC1C2CC3CC(C2)CC1C3 (stereo partly drawn) [Compound 10a, β-Alanine, N-[3-[[3-(1H-indol-3-yl)-2-methyl-1-oxo-2-[[(tricyclo[3.3.1.1^3,7]dec-2-yloxy)carbonyl]amino]propyl]amino]-1-oxo-4-phenylbutyl]-, methyl ester, [R-(R*,S*)]]
11 | 173 | COC(=O)CCCCCNC(=O)[C@H](Cc1ccccc1)NC(=O)[C@@](C)(Cc1c[nH]c2ccccc12)NC(=O)OC1C2CC3CC(C2)CC1C3 (stereo partly drawn) [Compound 5d, L-Phenylalaninamide, α-methyl-N-[(tricyclo[3.3.1.1^3,7]dec-2-yloxy)carbonyl]-D-tryptophyl-N-(6-methoxy-6-oxohexyl)]
12 | 4.4 ± 0.6 | C[C@](Cc1c[nH]c2ccccc12)(NC(=O)OC1C2CC3CC(C2)CC1C3)C(=O)N[C@H](CC(=O)NCC(=O)O)Cc1ccccc1 (stereo partly drawn) [Compound 11k]
